# Patent US20080026996A1, “Selective Vpac2 Receptor Reptide Agonists” (ELI LILLY AND COMPANY, priority 2004, published 2008)
# Where no end group is shown, it is not given here. [ ]: non-standard residue; d: D form. The star is where a group is joined. hArg = N=C(N)NCCCC[C@H](N)C(=O)O; Hexanoyl = CCCCCC(=O)*; Aib = CC(C)(N)C(=O)O
# Molecular target: T1, rat VPAC1 receptor (Rattus norvegicus, UniProt P30083)
# T1 sequence (P30083 31-459): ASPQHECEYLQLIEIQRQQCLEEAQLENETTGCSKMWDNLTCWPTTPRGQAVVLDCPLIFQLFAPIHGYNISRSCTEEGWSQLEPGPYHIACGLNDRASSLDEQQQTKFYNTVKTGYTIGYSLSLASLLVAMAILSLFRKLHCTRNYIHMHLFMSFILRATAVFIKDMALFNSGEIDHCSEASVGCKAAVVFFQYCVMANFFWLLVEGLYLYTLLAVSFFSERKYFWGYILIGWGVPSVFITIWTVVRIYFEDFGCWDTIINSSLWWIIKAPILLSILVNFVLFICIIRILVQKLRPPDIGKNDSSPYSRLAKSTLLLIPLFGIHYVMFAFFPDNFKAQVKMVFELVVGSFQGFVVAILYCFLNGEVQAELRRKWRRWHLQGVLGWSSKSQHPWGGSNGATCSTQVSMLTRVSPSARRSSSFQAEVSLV
# Assay: DiscoveRx in vitro potency, CHO-PO cells transiently transfected with rat VPAC 1 receptor DNA
# Format: cell-based
# Parameters: expressed in transfected cells; host or cells: CHO-PO, transient
# Settings: not given
# Experimental: (§1) Also, the cells are washed twice. […] The stimuli are present for 30 minutes. Then, the assay buffer is gently removed.
row,Substance,EC50 [nM]
1,Hexanoyl-HSDAVFTDNYTRLLAKVAAKKYLQSIKNKRYGGPSSGAPPPS [Agonist P135],0.02
2,Hexanoyl-HSDAVFTDNYTRL[Aib]KQVAAK[Aib]YLQSIKNKRYGGPSSGAPPPS [Agonist P244],127
3,Hexanoyl-HSEAVFTENYTRLR[Aib]QVAA[Aib]KYLQSIKNKRYGGPSSGAPPPS [Agonist P314],29.2

# Molecular target: T2, human VPAC1 (Homo sapiens, UniProt P32241)
# T2 sequence (P32241 31-457): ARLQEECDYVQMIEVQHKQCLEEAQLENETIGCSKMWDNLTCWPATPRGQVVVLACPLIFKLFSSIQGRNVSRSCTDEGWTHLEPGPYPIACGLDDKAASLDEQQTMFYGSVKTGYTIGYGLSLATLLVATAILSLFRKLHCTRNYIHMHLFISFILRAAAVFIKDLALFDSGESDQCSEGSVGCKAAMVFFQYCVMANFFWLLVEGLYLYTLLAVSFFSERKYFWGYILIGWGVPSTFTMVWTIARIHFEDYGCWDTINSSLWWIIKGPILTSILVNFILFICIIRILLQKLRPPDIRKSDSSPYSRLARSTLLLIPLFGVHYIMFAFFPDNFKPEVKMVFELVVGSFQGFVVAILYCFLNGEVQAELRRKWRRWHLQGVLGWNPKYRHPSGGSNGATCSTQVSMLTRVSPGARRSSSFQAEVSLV
# Assay: Filter binding assay, membranes of cells transiently transfected with human VPAC1, 125I-labeled VIP tracer (Table 2)
# Parameters: expressed in transfected cells
# Settings: read-out: Human VPAC1 Receptor Binding
# Outline: (§2)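 Radioligand displacement was measured with 2.5 μg membrane protein per well and roughly 40000 cpm of iodinated tracer. After a 1-hour incubation, bound and free label were separated on BSA-blocked glass-fibre filters and quantified by scintillation.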
row,Substance,IC50 [nM]
1,H-HSDAVFTDNYTRLRKQVAAKKYLQSI[hArg]NKRYGGPSSGAPPPS [Agonist P22],123
2,HSDAVFTDNYTRLRKQVAAKKYLQSIKNKRF [Agonist P34],79.2
3,HSDAVFTDNYTRLRKQVAAKKYLQSIRNKRYGGPSSGAPPPS [Agonist P23],150
4,Hexanoyl-HSDAVFTDNYTRLLAKVAAKKYLQSIKNKRYGGPSSGAPPPS [Agonist P135],251
5,Hexanoyl-HSDAVFTDNYTRL[Aib]KQVAAK[Aib]YLQSIKNKRYGGPSSGAPPPS [Agonist P244],> 3000
6,Hexanoyl-HSEAVFTENYTRLR[Aib]QVAA[Aib]KYLQSIKNKRYGGPSSGAPPPS [Agonist P314],> 3000

# Molecular target: T3, human VPAC2 (Homo sapiens, UniProt P41587)
# T3 construct: expressed in transfected cells
# T3 sequence (P41587 24-438): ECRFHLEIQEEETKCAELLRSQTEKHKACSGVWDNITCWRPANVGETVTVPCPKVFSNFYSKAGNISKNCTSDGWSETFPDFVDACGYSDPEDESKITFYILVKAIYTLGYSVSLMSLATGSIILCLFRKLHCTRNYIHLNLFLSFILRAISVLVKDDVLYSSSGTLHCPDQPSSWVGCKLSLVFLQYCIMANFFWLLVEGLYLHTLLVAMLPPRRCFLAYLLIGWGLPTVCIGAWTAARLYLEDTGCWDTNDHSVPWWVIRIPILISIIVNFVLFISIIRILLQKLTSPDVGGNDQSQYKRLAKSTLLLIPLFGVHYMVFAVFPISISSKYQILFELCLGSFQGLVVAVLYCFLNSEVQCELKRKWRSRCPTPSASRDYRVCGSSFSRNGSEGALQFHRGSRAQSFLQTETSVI
# Assay: Alpha screen cAMP in vitro potency, human VPAC2 receptor
# Format: cell-based
# Settings: cAMP generation; single result from two analyses performed in a single run; read-out: Human VPAC2 Receptor: Alpha Screen EC50
# Outline: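 Under reduced light, acceptor beads accompany the stimuli during a 60-minute incubation of cells in stimulation buffer (50,000 per well point). Donor beads go in with lysis buffer for a further 60–120 minutes, and the resulting AlphaScreen signal indicates cAMP levels.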
row,Substance,EC50 [nM]
1,Hexanoyl-HSDAVFTDNYTRLLAKVAAKKYLQSIKNKRYGGPSSGAPPPS [Agonist P135],0.18
2,Hexanoyl-HSEAVFTENYTRLR[Aib]QVAA[Aib]KYLQSIKNKRYGGPSSGAPPPS [Agonist P314],0.22

# Tested on: Normal Wistar rats
# Assay: Intravenous glucose tolerance test (IVGTT)
# Format: in vivo, rat
# Settings: IVGTT, insulin, 0.1 μg/kg
# Experimental: Intravenous glucose tolerance test (IVGTT): Normal Wistar rats are fasted overnight and are anesthetized prior to the experiment. A blood sampling catheter is inserted into the rats. The compound is given in the jugular vein. Blood samples are taken from the carotid artery. A blood sample is drawn immediately prior to the injection of glucose along with the compound. After the initial blood sample, glucose mixed with compound is injected intravenously (i.v.). A glucose challenge of 0.5 g/kg body weight is given, injecting a total of 1.5 mL vehicle with glucose and agonist per kg body weight. The peptide concentration vary to produce the desired dose in μg/kg. Blood samples are drawn at 2, 4, 6 and 10 minutes after giving glucose. The control group of animals receives the same vehicle along with glucose, but with no compound added. In some instances, a 30 minute post-glucose blood sample is drawn. Aprotinin is added to the blood sample (250 kIU/ml blood). The serum is then analyzed for glucose and insulin using standard methodologies.
# The assay uses a formulated and calibrated peptide stock in PBS. Normally, this stock is a prediluted 100 μM stock. However, a more concentrated stock with approximately 1 mg agonist per mL is used. The specific concentration is always known. Variability in the maximal response is mostly due to variability in the vehicle dose.
row,Substance,% increase AUC: Dose = 0.1 μg/kg [%]
1,HVDAVFTDNYTRLRKQVAAKKYLQSIKNKRYGGPSSGAPPPS [Agonist P44],19

# Same assay, conditions: IVGTT, insulin, 10 μg/kg
row,Substance,% increase AUC: Dose = 10 μg/kg [%]
1,HVDAVFTDNYTRLRKQVAAKKYLQSIKNKRYGGPSSGAPPPS [Agonist P44],194

# Tested on: not listed separately
# Assay: Rat serum stability studies (remaining active peptide by DiscoveRx cAMP on CHO-VPAC2 cells)
# Format: in vitro ADME
# Settings: not given
# Outline: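 EC50 from a DiscoveRx cAMP read-out on CHO-VPAC2 cells indexes how much peptide stays active after 18 h in rat serum at 37° C without aprotinin, against an aprotinin-protected 4° C aliquot.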
Substance,Rat Serum Stability (Estimated purity in % after 72 hours) [%],Rat Serum Stability (estimated purity in % after 18 hours) [%]
Hexanoyl-HSDAVFTDNYTRL[Aib]KQVAAK[Aib]YLQSIKNKRYGGPSSGAPPPS [Agonist P244],6.2,30.64
Hexanoyl-HSEAVFTENYTRLR[Aib]QVAA[Aib]KYLQSIKNKRYGGPSSGAPPPS [Agonist P314],–,8.44

# Molecular target: T4, human PAC1 (Homo sapiens, UniProt P41586)
# T4 sequence (P41586 21-468): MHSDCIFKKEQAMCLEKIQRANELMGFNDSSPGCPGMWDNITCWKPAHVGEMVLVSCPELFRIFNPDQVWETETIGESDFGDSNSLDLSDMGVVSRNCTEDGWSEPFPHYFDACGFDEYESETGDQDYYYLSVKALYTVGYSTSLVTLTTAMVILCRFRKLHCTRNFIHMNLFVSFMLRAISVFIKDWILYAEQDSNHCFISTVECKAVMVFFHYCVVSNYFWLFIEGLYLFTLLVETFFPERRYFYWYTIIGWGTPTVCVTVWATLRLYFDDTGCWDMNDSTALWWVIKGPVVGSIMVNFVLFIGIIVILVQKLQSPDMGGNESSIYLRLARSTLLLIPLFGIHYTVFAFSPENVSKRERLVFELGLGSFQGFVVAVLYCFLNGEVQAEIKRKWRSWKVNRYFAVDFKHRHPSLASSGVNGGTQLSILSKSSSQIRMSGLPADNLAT
# Assay: Filter binding assay, membranes of cells transiently transfected with human PAC1, 125I-labeled PACAP-27 tracer (Table 2)
# Parameters: expressed in transfected cells
# Settings: read-out: Human PAC1 Receptor Binding
# Outline: as §2
row,Substance,IC50 [nM]
1,Hexanoyl-HSDAVFTDNYTRLLAKVAAKKYLQSIKNKRYGGPSSGAPPPS [Agonist P135],748
2,Hexanoyl-HSDAVFTDNYTRL[Aib]KQVAAK[Aib]YLQSIKNKRYGGPSSGAPPPS [Agonist P244],> 25000
3,Hexanoyl-HSEAVFTENYTRLR[Aib]QVAA[Aib]KYLQSIKNKRYGGPSSGAPPPS [Agonist P314],> 25000

# Molecular target: T3, human VPAC2
# Assay: Filter binding assay, membranes of stable VPAC2 cell line, 125I-labeled VIP tracer (Table 2)
# Settings: read-out: Human VPAC2 Receptor Binding
# Outline: as §2
row,Substance,IC50 [nM]
1,H-HSDAVFTDNYTRLRKQVAAKKYLQSI[hArg]NKRYGGPSSGAPPPS [Agonist P22],0.87
2,HSDAVFTDNYTRLRKQVAAKKYLQSIKNKRF [Agonist P34],0.92
3,HSDAVFTDNYTRLRKQVAAKKYLQSIRNKRYGGPSSGAPPPS [Agonist P23],0.92
4,Hexanoyl-HSDAVFTDNYTRLLAKVAAKKYLQSIKNKRYGGPSSGAPPPS [Agonist P135],0.43
5,Hexanoyl-HSDAVFTDNYTRL[Aib]KQVAAK[Aib]YLQSIKNKRYGGPSSGAPPPS [Agonist P244],26.9
6,Hexanoyl-HSEAVFTENYTRLR[Aib]QVAA[Aib]KYLQSIKNKRYGGPSSGAPPPS [Agonist P314],0.57

# Molecular target: T5, rat VPAC2 receptor (Rattus norvegicus, UniProt P35000)
# T5 sequence (P35000 23-437): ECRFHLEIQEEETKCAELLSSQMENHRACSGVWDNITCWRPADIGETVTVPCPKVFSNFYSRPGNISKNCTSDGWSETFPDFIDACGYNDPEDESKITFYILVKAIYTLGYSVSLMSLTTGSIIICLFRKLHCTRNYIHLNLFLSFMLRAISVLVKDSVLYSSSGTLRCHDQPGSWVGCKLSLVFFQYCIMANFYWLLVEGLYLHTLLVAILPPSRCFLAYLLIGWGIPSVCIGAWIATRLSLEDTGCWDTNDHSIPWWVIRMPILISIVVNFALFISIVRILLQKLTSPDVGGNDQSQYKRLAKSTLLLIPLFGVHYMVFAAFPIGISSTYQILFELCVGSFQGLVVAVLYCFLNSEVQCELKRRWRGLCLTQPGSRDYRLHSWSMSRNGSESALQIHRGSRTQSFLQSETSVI
# Assay: DiscoveRx in vitro potency, CHO-PO cells transiently transfected with rat VPAC 2 receptor DNA
# Format: cell-based
# Parameters: expressed in transfected cells; host or cells: CHO-PO, transient
# Settings: not given
# Experimental: as §1
row,Substance,EC50 [nM]
1,Hexanoyl-HSDAVFTDNYTRLLAKVAAKKYLQSIKNKRYGGPSSGAPPPS [Agonist P135],0.05

# Molecular target: T2, human VPAC1
# Assay: DiscoveRx cAMP in vitro potency, CHO-PO cells transiently transfected with human VPAC1 receptor
# Format: cell-based
# Parameters: expressed in transfected cells; host or cells: CHO-PO, transient (Lipofectamine)
# Settings: cAMP generation; mean of two independent runs; read-out: Human VPAC1 Receptor: DiscoveRx EC50
# Experimental: (§3) Also, the cells are washed twice. The cells are incubated in assay buffer plus IBMX for 15 minutes at room temperature. […] The stimuli are present for 30 minutes. Then, the assay buffer is gently removed. […] At day 3, the assay described above for the VPAC2 receptor cell line is performed.
row,Substance,EC50 [nM]
1,H-HSDAVFTDNYTRLRKQVAAKKYLQSI[hArg]NKRYGGPSSGAPPPS [Agonist P22],0.9
2,HSDAVFTDNYTRLRKQVAAKKYLQSIKNKRF [Agonist P34],0.8
3,HSDAVFTDNYTRLRKQVAAKKYLQSIRNKRYGGPSSGAPPPS [Agonist P23],0.9

# Molecular target: T3, human VPAC2
# Assay: DiscoveRx cAMP in vitro potency, CHO-S cell line stably expressing human VPAC2 receptor
# Format: cell-based
# Settings: cAMP generation; mean of two independent runs
# Experimental: as §3
row,Substance,EC50 [nM]
1,HSDAVFTDNYTRLRKQVAAKKYLQSIRNKRYGGPSSGAPPPS [Agonist P23],1.41
2,HVDAVFTDNYTRLRKQVAAKKYLQSIKNKRYGGPSSGAPPPS [Agonist P44],0.92
